Results taken from article PMC4285233 (Molecular Microbiology, 2014).

Legend:
[1] = biological target: T1, Gap1 (general amino acid permease) (Saccharomyces cerevisiae, UniProt P19145); test: inhibition of L-citrulline uptake in intact yeast; format: cell-based
T1 sequence (P19145 1-602): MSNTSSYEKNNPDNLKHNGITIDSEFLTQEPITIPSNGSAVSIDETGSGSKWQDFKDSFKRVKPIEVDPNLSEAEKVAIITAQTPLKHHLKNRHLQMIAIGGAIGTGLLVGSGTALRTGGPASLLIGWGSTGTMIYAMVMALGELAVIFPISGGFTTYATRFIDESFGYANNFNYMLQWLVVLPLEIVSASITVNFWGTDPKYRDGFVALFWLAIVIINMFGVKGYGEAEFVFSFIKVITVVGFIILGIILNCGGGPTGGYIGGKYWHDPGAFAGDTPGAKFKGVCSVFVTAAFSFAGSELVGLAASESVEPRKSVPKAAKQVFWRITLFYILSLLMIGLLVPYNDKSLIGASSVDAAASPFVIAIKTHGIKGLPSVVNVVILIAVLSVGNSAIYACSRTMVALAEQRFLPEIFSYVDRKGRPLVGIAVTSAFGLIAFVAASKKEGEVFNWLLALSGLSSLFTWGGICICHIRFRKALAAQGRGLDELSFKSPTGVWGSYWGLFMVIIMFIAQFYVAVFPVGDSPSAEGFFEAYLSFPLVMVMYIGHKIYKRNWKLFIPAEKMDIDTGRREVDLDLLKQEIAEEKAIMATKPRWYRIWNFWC

[2] = biological target: T1, Gap1 (general amino acid permease); test: inhibition of […]-L-citrulline uptake in intact yeast; format: cell-based

| Compound | inhibition of L-citrulline uptake in intact yeast (Fig. S6B, C) [1] | Ki [2] [µM] |
| --- | --- | --- |
| N[C@H](Cc1c[nH]cn1)C(=O)O [D-histidine] | Moreover they are acting largely as competitive inhibitors of L-citrulline transport (Fig. S6B and C) | – |
| N[C@@H](Cc1c[nH]cn1)C(=O)O [L-histidine] | – | 2.5 |
| NCCCC[C@H](N)C(=O)O [L-lysine] | – | 9.5 |
| N[C@@H](Cc1c[nH]c2ccccc12)C(=O)O [L-tryptophan] | – | 3.3 |
| NCCC(=O)O [β-alanine] | Moreover they are acting largely as competitive inhibitors of L-citrulline transport (Fig. S6B and C) | – |
